In patent US9133115B2 (ACHILLION PHARMACEUTICALS, INC., priority 2008, dated 2015):

What follows are compounds tested on HCV replicon (assay: HCV replicon replication assay (NPT ELISA) in Huh-7 replicon-containing cells). Details: Hepatitis C virus, 72 h; HCV replicon in Huh-7 cells, three days incubation; read-out: EC50.
Assay type: cell-based
How it was run: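 Replication was scored by capture ELISA of neomycin phosphotransferase, whose level tracks replicon replication, after graded compound treatment. The cells were Huh-7 harbouring an HCV-IRES/neo/EMCV-IRES/NS3–NS5B/3′-NTR replicon, plated at 6000-7500 cells/well and dosed 24 h later at 60-70% confluence; interferon alpha was the positive control.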

| SMILES | EC50 |
| --- | --- |
| C=C[C@@H]1C[C@]1(NC(=O)[C@@H]1C[C@@H](Oc2cc(-c3ccccn3)nc3cc(OC)ccc23)CN1C(=O)[C@@H](CC(=O)N1CCCCC1)C(C)(C)C)C(=O)NS(=O)(=O)C1CC1 [Compound 165, (2S,4R)-1-((S)-2-tert-butyl-4-oxo-4-(piperidin-1-yl)butanoyl)-N-((1R,2S)-1-(cyclo-propylsulfonyl-carbamoyl)-2-vinyl-cyclopropyl)-4-(7-methoxy-2-(pyridin-2-yl)quinolin-4-yloxy)pyrrolidine-2-carboxamide] | < 1000 nM |
| C=C[C@@H]1C[C@]1(NC(=O)[C@@H]1C[C@@H](Oc2cc(-c3ccccc3)nc3cc(OC)ccc23)CN1C(=O)[C@@H](CC(=O)N1CCCCC1)C(C)(C)C)C(=O)NS(=O)(=O)C(C)C [Compound 63, (2S,4R)-1-((S)-2-tert-butyl-4-oxo-4-(piperidin-1-yl)butanoyl)-N-((1R,2S)-1-(isopropylsulfonyl-carbamoyl)-2-vinylcyclopropyl)-4-(7-methoxy-2-phenylquinolin-4-yloxy)pyrrolidine-2-carboxamide] | < 1000 nM |
| C=C[C@@H]1C[C@]1(NC(=O)[C@@H]1C[C@@H](Oc2cc(-c3cccnc3)nc3c(C)c(OC)ccc23)CN1C(=O)[C@@H](CC(=O)N1CCCC(F)(F)C1)C(C)(C)C)C(=O)NS(=O)(=O)C1CC1 [Compound 252, (2S,4R)-1-((S)-2-tert-butyl-4-(3,3-difluoropiperidin-1-yl)-4-oxobutanoyl)-N-((2S)-1-(cyclopropyl-sulfonylcarbamoyl)-2-vinylcyclopropyl)-4-(7-methoxy-8-methyl-2-(pyridin-3-yl)quinolin-4-yloxy)pyrrolidine-2-carboxamide] | < 1000 nM |
| CC[C@H](NC(=O)[C@@H]1C[C@@H](Oc2cc(-c3ccccc3)nc3cc(OC)ccc23)CN1C(=O)[C@@H](CC(=O)N1CCCCC1)C(C)(C)C)C(=O)NS(=O)(=O)C1CC1 [Compound 109, (2S,4R)-1-((S)-2-tert-butyl-4-oxo-4-(piperidin-1-yl)butanoyl)-N-((S)-1-(cyclopropane-sulfonamido)-1-oxobutan-2-yl)-4-(7-methoxy-2-phenylquinolin-4-yloxy)pyrrolidine-2-carboxamide] | 1000 to 10000 nM |
| C=C[C@@H]1C[C@]1(NC(=O)[C@@H]1C[C@@H](Oc2cc(-c3ccccc3)nc3cc(OC)ccc23)CN1C(=O)[C@@H](CC(=O)n1c(C2CCCCN2)nc2cc(F)ccc21)C(C)(C)C)C(=O)NS(=O)(=O)C1CC1 (stereo partly drawn) [Compound 126, (2S,4R)-1-((2S)-2-tert-butyl-4-(5-fluoro-2-(piperidin-2-yl)-1H-benzo[d]imidazol-1-yl)-4-oxobutanoyl)-N-((1R,2S)-1-(cyclo-propylsulfonyl-carbamoyl)-2-vinylcyclopropyl)-4-(7-methoxy-2-phenylquinolin-4-yloxy)pyrrolidine-2-carboxamide] | < 1000 nM |
| C=C[C@@H]1C[C@]1(NC(=O)[C@@H]1C[C@H](Oc2cc(-c3ccccc3)nc3cc(OC)ccc23)CN1C(=O)[C@@H](CC(=O)N1CCCCC1)C(C)(C)C)C(=O)NS(=O)(=O)C1CC1 [Compound 132, (2S,4S)-1-((S)-2-tert-butyl-4-oxo-4-(piperidin-1-yl)butanoyl)-N-((1R,2S)-1-(cyclo-propylsulfonyl-carbamoyl)-2-vinylcyclopropyl)-4-(7-methoxy-2-phenylquinolin-4-yloxy)pyrrolidine-2-carboxamide] | < 1000 nM |
| C=CC1C[C@]1(NC(=O)[C@@H]1C[C@@H](Oc2cc(-c3ccccc3)nc3cc(OC)ccc23)CN1C(=O)[C@@H](CC(=O)N1CCCC(C(=O)OCC)C1)C(C)(C)C)C(=O)NS(=O)(=O)C1CC1 (stereo partly drawn) [Compound 160, ethyl 1-((S)-3-((2S,4R)-2-((1R,2S)-1-(cyclopropyl-sulfonylcarbamoyl)-2-vinylcyclopropyl-carbamoyl)-4-(7-methoxy-2-phenylquinolin-4-yloxy)pyrrolidine-1-carbonyl)-4,4-dime-thylpentanoyl)piper-idine-3-carboxylate] | < 1000 nM |
| C=C[C@@H]1C[C@]1(NC(=O)[C@@H]1C[C@@H](Oc2cc(-c3ccccc3)nc3ccccc23)CN1C(=O)[C@@H](CC(=O)N1CCCCC1)C(C)(C)C)C(=O)NS(=O)(=O)C1CC1 [Compound 225, (2S,4R)-1-((S)-2-tert-butyl-4-oxo-4-(piperidin-1-yl)butanoyl)-N-((1R)-1-(cyclopropyl-sulfonylcarbamoyl)-2-vinylcyclopropyl)-4-(2-phenylquinolin-4-yloxy)pyrrolidine-2-carboxamide] | < 1000 nM |
| C=C[C@@H]1C[C@]1(NC(=O)[C@@H]1C[C@@H](Oc2cc(-c3ccccc3)nc3ccc(OC)cc23)CN1C(=O)[C@@H](CC(=O)N1CCCCC1)C(C)(C)C)C(=O)NS(=O)(=O)C1CC1 [Compound 229, (2S,4R)-1-((S)-2-tert-butyl-4-oxo-4-(piperidin-1-yl)butanoyl)-N-((1R)-1-(cyclopropyl-sulfonylcarbamoyl)-2-vinylcyclopropyl)-4-(6-methoxy-2-phenylquinolin-4-yloxy)pyrrolidine-2-carboxamide] | < 1000 nM |
| C=C[C@@H]1CC1(NC(=O)[C@@H]1C[C@@H](Oc2cc(-c3nc(C(C)C)cs3)nc3c(C)c(OC)ccc23)CN1C(=O)[C@@H](CC(=O)N1CCC(C(F)(F)F)CC1)C(C)(C)C)C(=O)NS(=O)(=O)C1CC1 (stereo in doubt) [Compound 250, (2S,4R)-1-((S)-2-tert-butyl-4-oxo-4-(4-(trifluoro-methyl)piperidin-1-yl)butanoyl)-N-((S)-1-(cyclopropyl-sulfonylcarbamoyl)-2-vinylcyclopropyl)-4-(2-(4-isopropylthiazol-2-yl)-7-methoxy-8-methylquinolin-4-yloxy)pyrrolidine-2-carboxamide] | < 1000 nM |
| C=C[C@@H]1C[C@]1(NC(=O)[C@@H]1C[C@@H](Oc2cc(-c3ccccc3)nc3cc(OC)ccc23)CN1C(=O)C(CC(=O)N1CCCCC1)C(C)(C)C)C(=O)NS(=O)(=O)C1CC1 (stereo partly drawn) [Compound 55, (2S,4R)-1-(2-tert-butyl-4-oxo-4-(piperidin-1-yl)butanoyl)-N-((1R,2S)-1-(cyclopropyl-sulfonylcarbamoyl)-2-vinylcyclopropyl)-4-(7-methoxy-2-phenylquinolin-4-yloxy)pyrrolidine-2-carboxamide] | < 1000 nM |
| COc1ccc2c(O[C@@H]3C[C@@H](C(=O)N[C@H](C(=O)NS(=O)(=O)C4CC4)c4ccccc4)N(C(=O)[C@@H](CC(=O)N4CCCCC4)C(C)(C)C)C3)cc(-c3ccccc3)nc2c1 [Compound 112, (2S,4R)-1-((S)-2-tert-butyl-4-oxo-4-(piperidin-1-yl)butanoyl)-N-((S)-2-(cyclopropane-sulfonamido)-2-oxo-1-phenylethyl)-4-(7-methoxy-2-phenylquinolin-4-yloxy)pyrrolidine-2-carboxamide] | 1000 to 10000 nM |
| C=C[C@@H]1C[C@]1(NC(=O)[C@@H]1C[C@@H](Oc2nc3ccccc3nc2-c2ccccc2)CN1C(=O)[C@@H](CC(=O)N1CCCCC1)C(C)(C)C)C(=O)NS(=O)(=O)C1CC1 [Compound 133, (2S,4R)-1-((S)-2-tert-butyl-4-oxo-4-(piperidin-1-yl)butanoyl)-N-((1R,2S)-1-(cyclo-propylsulfonyl-carbamoyl)-2-vinyl-cyclopropyl)-4-(3-phenylquinoxalin-2-yloxy)pyrrolidine-2-carboxamide] | 1000 to 10000 nM |
